From patent publication US4748155A, “Pharmacologically active tripeptides and process for their synthesis” (Eniricerche S.p.A., priority 1985, dated 1988)

System: acetic acid-induced writhings in mice
Conditions: mouse, in vivo, ip
Method: The analgesic activity has been tested by means of the writhing test. As the painful agent, an aqueous solution of acetic acid at 3% was used, injected by intraperitoneal way (0.1 ml/10 g), and the number was recorded of animal' writhings during the observation time of 20 minutes.
Twenty female mice of Albino Swiss strain, weighing 25-28 g, were treated with the compound under test, dissolved in physiologic solution:dimethylsulphoxide (1:1), at the dosage of 0.1 ml/kg/i.p. Other 20 mice, of same strain, sex and weight, were treated with the solvent only. After 40 minutes, the acetic acid was administered to both groups, and the increase of writhings was recorded.

CC(C)C[C@@H](NC(=O)C(Cc1c[nH]c2ccccc12)C(=O)O)NC(=O)[C@@H]1CCC(=O)N1 (stereo partly drawn) [GLP-g-Leu-m-TRP-OH, N-(pyroglutamyl)-N'-[(R,S)-alpha-carboxy-beta-3-indolyl-propanoyl]-(S)-1,1-diamino-isopentane]
inhibition of the number of contorsions (writhings): 25%
